# Source: patent US20240325544A1, “CATIONIC LIPID FOR COVALENT MODIFICATION OF PEPTIDES” (PharmalN Corporation, priority 2023, published 2024)
# Bridge positions count the residues as written; N and C are the ends. Square brackets hold non-standard residues; d marks the D form. Peptide text beside a SMILES is read from it. * marks the point of attachment. Stearoyl = CCCCCCCCCCCCCCCCCC(=O)*; Palmitoyl = CCCCCCCCCCCCCCCC(=O)*; Dab = NCC[C@H](N)C(=O)O; Hexanoyl = CCCCCC(=O)*
# Tested on: Sprague Dawley rats
# Assay: Dose-range finding of cationic alkyl modified CNP, subcutaneous bolus in rats (Table 2)
# Procedure: Animal care and treatment: Male Sprague Dawley rats aged 8 to 10 weeks (Charles River, Hollister, CA) were housed in groups of two (n=3/group) in disposable polypropylene cages with rodent cob bedding at the PharmaIN animal facility. Animals had ad libitum access to food (LabDiet Pico Rodent #5053; Animal Specialties, Woodburn, OR) and water. Temperature (68-74° F.) and humidity (30-60%) were maintained within a controlled range, and a 12-hour light/dark cycle was used. […] Animals were monitored closely during the first 4 hours following injection, then hourly throughout the rest of the day for any signs of swelling or discoloration (dilatory side effect), lethargy (side effect), ataxia (ataxia is used as a marker of toxicity). Rats were allowed a 1-week wash-out period between bolus doses. Following final observations, animals were humanely euthanized through CO2 asphyxiation.
Lethargy* in n = 3 (up to 10 mg/kg),Swelling and/or Discoloration in n = 3 (up to 10 mg/kg),Lethargy* in n = 3 (value in parentheses),Swelling and/or Discoloration in n = 3 (value in parentheses),Structure (SMILES),Ataxia** in n = 3 (up to 10 mg/kg),Ataxia** in n = 3 (value in parentheses)
≥5 mg/kg,≥5 mg/kg,(1.6) μmol/kg,(1.6) μmol/kg,CCCCCC(=O)N[C@@H](CCCCN)C(=O)N[C@@H](CCCCN)C(=O)NCC(=O)NCC(=O)NCC(=O)N[C@@H](CCN)C(=O)N[C@@H](CCN)C(=O)NCC(=O)N[C@@H](CC(C)C)C(=O)N[C@@H](CO)C(=O)N[C@@H](CCCCN)C(=O)NCC(=O)N[C@H]1CSSC[C@@H](C(=O)O)NC(=O)CNC(=O)[C@H](CC(C)C)NC(=O)CNC(=O)[C@H](CO)NC(=O)[C@H](CCC(N)=O)NC(=O)[C@H](CO)NC(=O)CNC(=O)[C@H]([C@@H](C)CC)NC(=O)[C@H](CCCNC(=N)N)NC(=O)[C@H](CC(=O)O)NC(=O)[C@H](CC(C)C)NC(=O)[C@H](CCCCN)NC(=O)[C@H](CC(C)C)NC(=O)CNC(=O)[C@H](Cc2ccccc2)NC1=O [SEQ ID NO: 28] (Hexanoyl-KKGGG[Dab][Dab]GLSKGCFGLKLDRIGSQSGLGC-OH; disulfide 13-29; C-terminus assumed),≥5 mg/kg,(1.6) μmol/kg
≥5 mg/kg,≥5 mg/kg,(1.6) μmol/kg,(1.6) μmol/kg,CCCCCCCCCCCCCCCC(=O)N[C@@H](CCCCN)C(=O)N[C@@H](CCCCN)C(=O)NCC(=O)NCC(=O)NCC(=O)N[C@@H](CCCCN)C(=O)N[C@@H](CCCCN)C(=O)NCC(=O)N[C@@H](CC(C)C)C(=O)N[C@@H](CO)C(=O)N[C@@H](CCCCN)C(=O)NCC(=O)N[C@H]1CSSC[C@@H](C(=O)O)NC(=O)CNC(=O)[C@H](CC(C)C)NC(=O)CNC(=O)[C@H](CO)NC(=O)[C@H](CCC(N)=O)NC(=O)[C@H](CO)NC(=O)CNC(=O)[C@H]([C@@H](C)CC)NC(=O)[C@H](CCCNC(=N)N)NC(=O)[C@H](CC(=O)O)NC(=O)[C@H](CC(C)C)NC(=O)[C@H](CCCCN)NC(=O)[C@H](CC(C)C)NC(=O)CNC(=O)[C@H](Cc2ccccc2)NC1=O [SEQ ID NO: 24] (Palmitoyl-KKGGGKKGLSKGCFGLKLDRIGSQSGLGC-OH; disulfide 13-29; C-terminus assumed),≥5 mg/kg,(1.6) μmol/kg
≥1 mg/kg,≥1 mg/kg,(0.31) μmol/kg,(0.31) μmol/kg,CCCCCCCCCCCCCCCCCC(=O)N[C@@H](CCCCN)C(=O)N[C@@H](CCCCN)C(=O)N[C@@H](CCCCN)C(=O)N[C@@H](CCCCN)C(=O)NCC(=O)NCC(=O)NCC(=O)NCC(=O)N[C@@H](CC(C)C)C(=O)N[C@@H](CO)C(=O)N[C@@H](CCCCN)C(=O)NCC(=O)N[C@H]1CSSC[C@@H](C(=O)O)NC(=O)CNC(=O)[C@H](CC(C)C)NC(=O)CNC(=O)[C@H](CO)NC(=O)[C@H](CCC(N)=O)NC(=O)[C@H](CO)NC(=O)CNC(=O)[C@H]([C@@H](C)CC)NC(=O)[C@H](CCCNC(=N)N)NC(=O)[C@H](CC(=O)O)NC(=O)[C@H](CC(C)C)NC(=O)[C@H](CCCCN)NC(=O)[C@H](CC(C)C)NC(=O)CNC(=O)[C@H](Cc2ccccc2)NC1=O [SEQ ID NO: 23] (Stearoyl-KKKKGGGGLSKGCFGLKLDRIGSQSGLGC-OH; disulfide 13-29; C-terminus assumed),≥3 mg/kg,(0.94) μmol/kg
